{"source": "patent US11077136B2", "about": "“Compositions for the skin” (BIOIBERICA, S.A.U., priority 2016, dated 2021)", "test_system": "Human dermal fibroblasts (HDF)", "test": "In vitro wound closure (healing activity) test, area covered with cells", "format": "cell-based", "details": "48 hours; O-3 0.156 mg/mL, HA 0.0017 mg/mL, DS 0.0004 mg/mL, N 0.0818 mg/mL, ZnO 0.0027 mg/mL; FIG. 4 and 5; p<0.05 where significant", "text": "Human dermal fibroblasts (HDF) were used, which were cultivated in dishes with 24 wells with a surface area of 1.99 cm^2, with a density of 7×10^4 cells/well. A mark was made in a straight line approximately 2 mm wide on the surface of the single layer of cells using a sterile plastic tip, creating an area free of cells. […]\nThe cells were then allowed to migrate to the center of the dish, to cover the area free of cells, in the presence of the compounds being studied, and the area covered with cells was quantified after 48 hours using the TIRF Automated Inverted Microscope—ScanR Olympus […] and a 4× objective lens (total amplification 40×). […]\nTo determine the healing activity of each treatment, the area covered by cells was quantified, in μm^2, before (T0 h) and after (48 h) the treatment, using image analysis using the software Image J. The results were compared with those obtained for the negative and positive controls.", "data": [{"compound": "[O]=[Zn]", "note": "[ZnO, Zinc oxide]", "values": [{"measurement": "increase in healing (area covered with cells) versus negative control", "result": "did not cause a significant increase in healing"}]}]}
